System: chinchilla model of acute noise-induced hearing loss
Experiment: chinchilla model of acute noise-induced hearing loss, auditory brainstem response thresholds
Type: in vivo
Conditions: 60 mg/kg intraperitoneal, doses 12 hours apart, five pre- and five post-noise, 105 dB SPL noise centered at 4 kHz for 6 hours, 21 days after noise exposure, 2, 4, 6, 8 kHz, p<0.01
Text: The otoprotective efficacy (i.e. the ability to prevent or reduce the development of permanent acute noise-induced hearing loss) of an exemplary Kv3 modulator, Example 64 described within WO2011069951A1 ((5R)-5-ethyl-5-methyl-3-[2-({4-methyl-3-[(trifluoromethyl)oxy]phenyl}oxy)-5-pyrimidinyl]-2,4-imidazolidinedione), referred to herein as “COMPOUND X”, was investigated using a chinchilla model of acute noise-induced hearing loss, as follows:
Subjects comprised male, 3 year old chinchillas (Laniger), 10 animals per group. Chinchillas were housed in the study facility for a minimum of 5 days prior to noise exposure. Food and water were available ad libitum. Animals were maintained at 21° C. on a 12/12 light/dark cycle. […]
Auditory brainstem responses (ABRs) were collected prior to noise exposure and 21 days after noise exposure. […] Thresholds were measured in response to tone-bursts with 1 ms rise/fall and a 0 ms plateau gated by a Blackman envelope and centred at the frequencies of 2, 4, 6 and 8 kHz, presented at 30/s. […]
The thresholds for ABRs at the four different sound frequencies at day 21 post-noise exposure were compared to the thresholds at baseline, prior to noise exposure in order to determine a threshold shift for each animal. The data were then analysed using a 2-way ANOVA, with treatment and frequency as main factors.

Question: How did the “permanent threshold shift in ABRs” value turn out when CC[C@@]1(C)NC(=O)N(c2cnc(Oc3ccc(C)c(OC(F)(F)F)c3)nc2)C1=O [COMPOUND X, (5R)-5-ethyl-5-methyl-3-[2-({4-methyl-3-[(trifluoromethyl)oxy]phenyl}oxy)-5-pyrimidinyl]-2,4-imidazolidinedione] was run?
Answer: significantly reduced
